Reference: ChEMBL document CHEMBL1201862, “PubChem BioAssay data set” (2004)
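The compound was tested at five concentrations on cells cultured in 96-well plates, with a 48-hour exposure period. At the GI50, growth is halved.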 Activity calls are given as the source filed them. Rule as the data show it: active = GI50 up to about 1.1 µM and inactive = higher.

Legend:
Experiment in all cases: NCI anticancer screen, dose series, 48 h
HT-29 = test system: HT-29
EKVX = test system: EKVX
OVCAR-3 = test system: OVCAR-3
M14 = test system: M14
OVCAR-8 = test system: OVCAR-8
SF-295 = test system: SF-295
MOLT-4 = test system: MOLT-4
SK-MEL-28 = test system: SK-MEL-28
HCT-15 = test system: HCT-15
MDA-MB-435 = test system: MDA-MB-435
SF-268 = test system: SF-268
OVCAR-4 = test system: OVCAR-4
COLO 205 = test system: COLO 205
K562 = test system: K562
T47D = test system: T47D
UACC-257 = test system: UACC-257
KM12 = test system: KM12
SK-OV-3 = test system: SK-OV-3
MDA-MB-231 = test system: MDA-MB-231
IGROV-1 = test system: IGROV-1
OVCAR-5 = test system: OVCAR-5
U-251 = test system: U-251
SNB-75 = test system: SNB-75
DU-145 = test system: DU-145
LOX IMVI = test system: LOX IMVI
HOP-62 = test system: HOP-62
SK-MEL-5 = test system: SK-MEL-5
NCI-H522 = test system: NCI-H522
RPMI-8226 = test system: RPMI-8226
A549 = test system: A549
TK-10 = test system: TK-10
HCC 2998 = test system: HCC 2998
CAKI-1 = test system: CAKI-1
NCI-H23 = test system: NCI-H23
HL-60 = test system: HL-60
SK-MEL-2 = test system: SK-MEL-2
SW-620 = test system: SW-620
786-0 = test system: 786-0
NCI-H226 = test system: NCI-H226
A498 = test system: A498
Hs-578T = test system: Hs-578T
SNB-19 = test system: SNB-19
SF-539 = test system: SF-539
PC-3 = test system: PC-3
SR = test system: SR
NCI-H460 = test system: NCI-H460
UO-31 = test system: UO-31
UACC-62 = test system: UACC-62
MCF7 = test system: MCF7
ACHN = test system: ACHN
HCT-116 = test system: HCT-116
MDA-N = test system: MDA-N
CCRF-CEM = test system: CCRF-CEM
SN12C = test system: SN12C
HOP-92 = test system: HOP-92
NCI/ADR-RES = test system: NCI/ADR-RES
RXF 393 = test system: RXF 393
Malme-3M = test system: Malme-3M

O=C1CC2c3ccccc3CCC2c2ccccc21 (stereo not drawn)
GI50 (HT-29): 13.3 µM (inactive)
GI50 (EKVX): 2.58 µM (inactive)
GI50 (OVCAR-3): 13.3 µM (inactive)
GI50 (M14): 15.7 µM (inactive)
GI50 (OVCAR-8): 21.2 µM (inactive)
GI50 (SF-295): 17.6 µM (inactive)
GI50 (MOLT-4): 32.3 µM (inactive)
GI50 (SK-MEL-28): 36.1 µM (inactive)
GI50 (HCT-15): 14.1 µM
GI50 (MDA-MB-435): 19.3 µM (inactive)
GI50 (SF-268): 27.5 µM (inactive)
GI50 (OVCAR-4): > 10 µM (inactive)
GI50 (COLO 205): 2.93 µM (inactive)
GI50 (K562): 6.32 µM (inactive)
GI50 (T47D): 42.9 µM (inactive)
GI50 (UACC-257): 26.2 µM (inactive)
GI50 (KM12): 9.35 µM (inactive)
GI50 (SK-OV-3): 51.2 µM (inactive)
GI50 (MDA-MB-231): 20.5 µM (inactive)
GI50 (IGROV-1): 26.3 µM (inactive)
GI50 (OVCAR-5): 24.4 µM (inactive)
GI50 (U-251): 34.8 µM (inactive)
GI50 (SNB-75): 38.2 µM (inactive)
GI50 (DU-145): 57.8 µM (inactive)
GI50 (LOX IMVI): 15.8 µM (inactive)
GI50 (HOP-62): 25.9 µM (inactive)
GI50 (SK-MEL-5): 11.6 µM (inactive)
GI50 (NCI-H522): 23.3 µM (inactive)
GI50 (RPMI-8226): 43.5 µM (inactive)
GI50 (A549): 27.5 µM (inactive)
GI50 (TK-10): 35.2 µM (inactive)
GI50 (HCC 2998): 21.5 µM (inactive)
GI50 (CAKI-1): 33.2 µM (inactive)
GI50 (NCI-H23): 20.2 µM (inactive)
GI50 (HL-60): 21.6 µM (inactive)
GI50 (SK-MEL-2): 16.8 µM (inactive)
GI50 (SW-620): 26.5 µM (inactive)
GI50 (786-0): 31.3 µM (inactive)
GI50 (NCI-H226): 12.1 µM (inactive)
GI50 (A498): 1 µM (active)
GI50 (Hs-578T): 12.4 µM (inactive)
GI50 (SNB-19): 15.1 µM (inactive)
GI50 (SF-539): 16.3 µM (inactive)
GI50 (PC-3): 26.2 µM (inactive)
GI50 (SR): 46.7 µM (inactive)
GI50 (NCI-H460): 22.3 µM (inactive)
GI50 (UO-31): 15.2 µM (inactive)
GI50 (UACC-62): 20 µM (inactive)
GI50 (MCF7): 24 µM (inactive)
GI50 (ACHN): 28.2 µM (inactive)
GI50 (HCT-116): 11.1 µM (inactive)
GI50 (MDA-N): 6.64 µM (inactive)

N#C/C(C(=S)NCc1ccccc1)=C(/N)N1CCCC1
GI50 (HT-29): > 100 µM (inactive)
GI50 (EKVX): > 100 µM (inactive)
GI50 (OVCAR-3): > 100 µM (inactive)
GI50 (M14): > 100 µM (inactive)
GI50 (OVCAR-8): > 100 µM (inactive)
GI50 (SF-295): > 100 µM (inactive)
GI50 (CCRF-CEM): > 100 µM (inactive)
GI50 (MOLT-4): > 100 µM (inactive)
GI50 (SK-MEL-28): > 100 µM (inactive)
GI50 (HCT-15): > 100 µM
GI50 (MDA-MB-435): > 100 µM (inactive)
GI50 (SF-268): > 100 µM (inactive)
GI50 (OVCAR-4): > 100 µM (inactive)
GI50 (COLO 205): > 100 µM (inactive)
GI50 (K562): > 100 µM (inactive)
GI50 (T47D): 25.1 µM (inactive)
GI50 (UACC-257): > 100 µM (inactive)
GI50 (KM12): > 100 µM (inactive)
GI50 (SK-OV-3): > 100 µM (inactive)
GI50 (MDA-MB-231): > 100 µM (inactive)
GI50 (IGROV-1): > 100 µM (inactive)
GI50 (OVCAR-5): > 100 µM (inactive)
GI50 (U-251): > 100 µM (inactive)
GI50 (DU-145): > 100 µM (inactive)
GI50 (LOX IMVI): > 100 µM (inactive)
GI50 (HOP-62): > 100 µM (inactive)
GI50 (SK-MEL-5): > 100 µM (inactive)
GI50 (SN12C): > 100 µM (inactive)
GI50 (NCI-H522): > 100 µM (inactive)
GI50 (RPMI-8226): > 100 µM (inactive)
GI50 (A549): > 100 µM (inactive)
GI50 (TK-10): > 100 µM (inactive)
GI50 (HCC 2998): > 100 µM (inactive)
GI50 (CAKI-1): > 100 µM (inactive)
GI50 (NCI-H23): > 100 µM (inactive)
GI50 (HL-60): > 100 µM (inactive)
GI50 (SK-MEL-2): > 100 µM (inactive)
GI50 (SW-620): > 100 µM (inactive)
GI50 (786-0): > 100 µM (inactive)
GI50 (NCI-H226): > 100 µM (inactive)
GI50 (A498): 35.3 µM (inactive)
GI50 (Hs-578T): > 100 µM (inactive)
GI50 (HOP-92): 44.9 µM (inactive)
GI50 (SNB-19): > 100 µM (inactive)
GI50 (SF-539): > 100 µM (inactive)
GI50 (PC-3): > 100 µM (inactive)
GI50 (SR): > 100 µM (inactive)
GI50 (NCI-H460): > 100 µM (inactive)
GI50 (UO-31): > 100 µM (inactive)
GI50 (NCI/ADR-RES): > 100 µM (inactive)
GI50 (UACC-62): > 100 µM (inactive)
GI50 (RXF 393): 74.3 µM (inactive)
GI50 (ACHN): > 100 µM (inactive)
GI50 (HCT-116): > 100 µM (inactive)
GI50 (MDA-N): > 100 µM (inactive)
GI50 (Malme-3M): > 100 µM (inactive)

c1ccc(-c2cc(-c3cccs3)c(-c3cccs3)s2)cc1
GI50 (HT-29): 55.7 µM (inactive)
GI50 (EKVX): 81.8 µM (inactive)
GI50 (OVCAR-3): 56.2 µM (inactive)
GI50 (M14): 18.9 µM (inactive)
GI50 (OVCAR-8): > 100 µM (inactive)
GI50 (SF-295): 80 µM (inactive)
GI50 (CCRF-CEM): 23.7 µM (inactive)
GI50 (MOLT-4): 21.2 µM (inactive)
GI50 (HCT-15): 22.8 µM
GI50 (MDA-MB-435): 27.1 µM (inactive)
GI50 (SF-268): > 100 µM (inactive)
GI50 (OVCAR-4): 14.3 µM (inactive)
GI50 (COLO 205): 47.3 µM (inactive)
GI50 (T47D): 4.5 µM (inactive)
GI50 (UACC-257): 56.8 µM (inactive)
GI50 (KM12): 14.9 µM (inactive)
GI50 (SK-OV-3): > 100 µM (inactive)
GI50 (MDA-MB-231): 29.9 µM (inactive)
GI50 (IGROV-1): > 100 µM (inactive)
GI50 (OVCAR-5): > 100 µM (inactive)
GI50 (U-251): 78.7 µM (inactive)
GI50 (SNB-75): 20 µM (inactive)
GI50 (DU-145): 64 µM (inactive)
GI50 (HOP-62): > 100 µM (inactive)
GI50 (SK-MEL-5): 33.7 µM (inactive)
GI50 (SN12C): 85.9 µM (inactive)
GI50 (NCI-H522): 26.5 µM (inactive)
GI50 (RPMI-8226): 31.8 µM (inactive)
GI50 (TK-10): 32.2 µM (inactive)
GI50 (HCC 2998): 25 µM (inactive)
GI50 (CAKI-1): 26.4 µM (inactive)
GI50 (NCI-H23): 19.1 µM (inactive)
GI50 (HL-60): 25.5 µM (inactive)
GI50 (SW-620): 33.7 µM (inactive)
GI50 (786-0): 50 µM (inactive)
GI50 (NCI-H226): > 100 µM (inactive)
GI50 (A498): 80.2 µM (inactive)
GI50 (Hs-578T): 70 µM (inactive)
GI50 (HOP-92): > 100 µM (inactive)
GI50 (SF-539): > 100 µM (inactive)
GI50 (SR): 18.9 µM (inactive)
GI50 (NCI-H460): 56.8 µM (inactive)
GI50 (UO-31): 26.2 µM (inactive)
GI50 (NCI/ADR-RES): 41.4 µM (inactive)
GI50 (UACC-62): > 100 µM (inactive)
GI50 (RXF 393): 16.6 µM (inactive)
GI50 (MCF7): 16.6 µM (inactive)
GI50 (ACHN): 70.5 µM (inactive)
GI50 (HCT-116): 19.6 µM (inactive)
GI50 (MDA-N): 14.6 µM (inactive)
